Experimental data as given in patent US6495560B1, “Vitronectin receptor antagonist” (SmithKline Beecham Corporation, priority 1998, dated 2002).

Biological target: T1, αvβ3 (vitronectin receptor) (Homo sapiens, UniProt P05106+P06756)
T1 construct: Human placenta or human platelet αvβ3 (0.1-0.3 mg/mL) in buffer T; from tissue; host or cells: human placenta or human platelets
Test: Solid-Phase [3H]-SK&F-107260 Binding to αvβ3
Conditions: human placenta or human platelet αvβ3; competition with 5.0 nM [3H]-SK&F-107260; Ki=IC50/(1+L/Kd)
Procedure: 0.1-0.2 μg of αvβ3 was added per well. The plates were incubated overnight at 4° C. At the time of the experiment, the wells were washed once with buffer A and were incubated with 0.1 mL of 3.5% bovine serum albumin in the same buffer for 1 hr at room temperature. Following incubation the wells were aspirated completely and washed twice with 0.2 mL buffer A.
Compound were dissolved in 100% DMSO to give a 2 mM stock solution, which was diluted with binding buffer (15 mM Tris-HCl (pH 7.4), 100 mM NaCl, 1 mM CaCl2, 1 mM MnCl2, 1 mM MgCl2) to a final compound concentration of 100 μM. This solution is then diluted to the required final compound concentration.
The plates were incubated for 1 hr at room temperature. Following incubation the wells were aspirated completely and washed once with 0.2 mL of ice cold buffer A in a well-to-well fashion.

T1 sequence (P06756 31-889 limits assumed): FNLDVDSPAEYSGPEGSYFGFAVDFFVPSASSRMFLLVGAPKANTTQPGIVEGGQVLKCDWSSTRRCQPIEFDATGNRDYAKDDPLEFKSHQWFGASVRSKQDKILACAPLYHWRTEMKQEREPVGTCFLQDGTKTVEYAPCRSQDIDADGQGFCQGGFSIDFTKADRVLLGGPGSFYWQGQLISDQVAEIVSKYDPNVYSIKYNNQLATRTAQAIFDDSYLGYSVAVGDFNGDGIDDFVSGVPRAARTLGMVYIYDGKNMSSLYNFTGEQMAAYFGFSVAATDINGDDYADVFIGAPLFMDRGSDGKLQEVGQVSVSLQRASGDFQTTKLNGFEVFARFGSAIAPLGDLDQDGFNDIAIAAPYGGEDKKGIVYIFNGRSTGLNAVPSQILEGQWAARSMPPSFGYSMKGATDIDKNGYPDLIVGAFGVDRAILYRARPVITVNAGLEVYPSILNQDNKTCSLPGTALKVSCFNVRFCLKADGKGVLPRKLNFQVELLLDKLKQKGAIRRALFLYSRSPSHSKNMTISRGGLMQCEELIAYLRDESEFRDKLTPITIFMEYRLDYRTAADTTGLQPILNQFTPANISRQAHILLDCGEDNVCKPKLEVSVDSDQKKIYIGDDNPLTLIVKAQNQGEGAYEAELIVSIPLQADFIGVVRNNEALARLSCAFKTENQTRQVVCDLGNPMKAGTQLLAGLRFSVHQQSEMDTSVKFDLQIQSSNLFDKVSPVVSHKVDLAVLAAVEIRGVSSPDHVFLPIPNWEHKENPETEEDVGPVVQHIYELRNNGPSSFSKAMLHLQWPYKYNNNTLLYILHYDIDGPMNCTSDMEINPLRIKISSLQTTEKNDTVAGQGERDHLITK
T1 sequence (P06756 891-1048 partner limits assumed): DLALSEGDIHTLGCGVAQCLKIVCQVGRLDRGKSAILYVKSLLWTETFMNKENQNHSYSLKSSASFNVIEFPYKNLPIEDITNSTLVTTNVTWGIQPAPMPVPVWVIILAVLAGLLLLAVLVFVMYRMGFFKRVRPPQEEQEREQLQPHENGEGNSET
T1 sequence (P05106 27-788): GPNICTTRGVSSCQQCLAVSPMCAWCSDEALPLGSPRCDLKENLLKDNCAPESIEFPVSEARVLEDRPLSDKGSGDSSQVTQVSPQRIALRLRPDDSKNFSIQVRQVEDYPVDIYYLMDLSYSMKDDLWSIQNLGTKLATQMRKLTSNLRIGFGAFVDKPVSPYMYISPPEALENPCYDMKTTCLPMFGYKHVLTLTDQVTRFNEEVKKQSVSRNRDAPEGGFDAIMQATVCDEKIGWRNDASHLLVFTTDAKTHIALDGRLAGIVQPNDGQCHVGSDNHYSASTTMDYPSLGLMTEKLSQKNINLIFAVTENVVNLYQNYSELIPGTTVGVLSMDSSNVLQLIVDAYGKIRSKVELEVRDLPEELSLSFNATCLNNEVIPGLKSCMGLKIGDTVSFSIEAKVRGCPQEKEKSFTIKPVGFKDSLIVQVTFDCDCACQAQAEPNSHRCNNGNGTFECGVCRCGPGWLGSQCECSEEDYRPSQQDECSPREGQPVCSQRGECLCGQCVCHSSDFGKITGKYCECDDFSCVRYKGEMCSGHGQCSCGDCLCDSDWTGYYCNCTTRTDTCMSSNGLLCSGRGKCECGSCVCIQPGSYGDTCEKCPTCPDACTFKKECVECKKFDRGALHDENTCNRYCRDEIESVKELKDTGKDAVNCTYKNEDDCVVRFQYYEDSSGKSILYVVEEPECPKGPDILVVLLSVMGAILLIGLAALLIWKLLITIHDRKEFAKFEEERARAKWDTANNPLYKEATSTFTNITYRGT

Ki: ~1.7 nM
Compound: O=C(O)C[C@@H]1Cc2ccc(OCCc3ccc4c(n3)NCCC4)cc2Cc2ccccc21 [Example 1, (S)-10,11-dihydro-3-[2-(5,6,7,8-tetrahydro-1,8-naphthyridin-2-yl)-1-ethoxy]-5H-dibenzo[a,d]cycloheptene-10-acetic acid]
